Measurements reported in ChEMBL document CHEMBL3046848, “Synthesis and biological evaluation of novel series of thieno[2,3-d]pyrimidine derivatives as anticancer and antimicrobial agents” (2013).
Values after ≈ are worked out from the molar mass of the structure shown.

Tests used:
Format in all cases: functional
RPMI-8226 = assay: Anticancer activity against Homo sapiens (human) RPMI8226 cells after 48 hr by SRB assay; conditions: RPMI-8226, 48 h
NCI/ADR-RES = assay: Growth inhibition of Homo sapiens (human) NCI/ADR-RES cells at 10 uM after 48 hr by SRB assay; conditions: read-out: GI
SN12C = assay: Growth inhibition of Homo sapiens (human) SN12C cells at 10 uM after 48 hr by SRB assay; conditions: read-out: GI
M14 = assay: Growth inhibition of Homo sapiens (human) M14 cells at 10 uM after 48 hr by SRB assay; conditions: M14, 48 h, read-out: GI
OVCAR-8 = assay: Growth inhibition of Homo sapiens (human) OVCAR8 cells at 10 uM after 48 hr by SRB assay; conditions: OVCAR-8, 48 h, read-out: GI
HT-29 = assay: Anticancer activity against Homo sapiens (human) HT-29 cells after 48 hr by SRB assay; conditions: HT-29, 48 h
NCI-H23 = assay: Anticancer activity against Homo sapiens (human) NCI-H23 cells after 48 hr by SRB assay; conditions: NCI-H23, 48 h
SR = assay: Growth inhibition of Homo sapiens (human) SR cells at 10 uM after 48 hr by SRB assay; conditions: read-out: GI
CAKI-1 = assay: Anticancer activity against Homo sapiens (human) CAKI-1 cells after 48 hr by SRB assay; conditions: CAKI-1, 48 h
PC-3 = assay: Anticancer activity against Homo sapiens (human) PC3 cells after 48 hr by SRB assay; conditions: PC-3, 48 h
KM12 = assay: Growth inhibition of Homo sapiens (human) KM12 cells at 10 uM after 48 hr by SRB assay; conditions: KM12, 48 h, read-out: GI
NCI-H322M = assay: Growth inhibition of Homo sapiens (human) NCI-H322M cells at 10 uM after 48 hr by SRB assay; conditions: read-out: GI
DU-145 = assay: Anticancer activity against Homo sapiens (human) DU145 cells after 48 hr by SRB assay; conditions: DU-145, 48 h
SK-MEL-5 = assay: Growth inhibition of Homo sapiens (human) SK-MEL-5 cells at 10 uM after 48 hr by SRB assay; conditions: SK-MEL-5, 48 h, read-out: GI
SK-MEL-28 = assay: Growth inhibition of Homo sapiens (human) SK-MEL-28 cells at 10 uM after 48 hr by SRB assay; conditions: SK-MEL-28, 48 h, read-out: GI
MDA-MB-435 = assay: Anticancer activity against Homo sapiens (human) MDA-MB-435 cells after 48 hr by SRB assay; conditions: MDA-MB-435, 48 h
HOP-62 = assay: Growth inhibition of Homo sapiens (human) HOP62 cells at 10 uM after 48 hr by SRB assay; conditions: HOP-62, 48 h, read-out: GI
SF-268 = assay: Growth inhibition of Homo sapiens (human) SF268 cells at 10 uM after 48 hr by SRB assay; conditions: SF-268, 48 h, read-out: GI
Pseudomonas aeruginosa = assay: Antimicrobial activity against Pseudomonas aeruginosa ATCC9027 assessed as growth inhibition after 48 hr by two-fold serial dilution method; conditions: ATCC9027, 48 h
[1] = read-out: LC50 (the source's name)

Q: Which GI50 (RPMI-8226) does the source give for `Cc1c(C(N)=O)sc2nc(C)n(/N=c3\scc(-c4ccccc4)n3Cc3ccccc3)c(=O)c12` here?
A: 13.9 µM

Q: What about the TGI (RPMI-8226) of the same molecule?
A: > 100 µM

Q: What about the CC50 (RPMI-8226; [1]) of the same molecule?
A: > 100 µM

Q: And the inhibition of growth at 10 µM (NCI/ADR-RES)?
A: 81.1%

Q: And the inhibition of growth at 10 µM (SN12C)?
A: 52.3%

Q: What about the inhibition of growth at 10 µM (M14) of the same molecule?
A: 63.6%

Q: What about the inhibition of growth at 10 µM (OVCAR-8) of the same molecule?
A: 85.3%

Q: And the GI50 (HT-29)?
A: 3.04 µM

Q: And the TGI (HT-29)?
A: > 100 µM

Q: What about the CC50 (HT-29; [1]) of the same molecule?
A: > 100 µM

Q: What about the GI50 (NCI-H23) of the same molecule?
A: 3.12 µM

Q: And the TGI (NCI-H23)?
A: > 100 µM

Q: And the CC50 (NCI-H23; [1])?
A: > 100 µM

Q: And the inhibition of growth at 10 µM (SR)?
A: 87.2%

Q: And the GI50 (CAKI-1)?
A: 3.35 µM

Q: What about the TGI (CAKI-1) of the same molecule?
A: > 100 µM

Q: What about the CC50 (CAKI-1; [1]) of the same molecule?
A: > 100 µM

Q: And the GI50 (PC-3)?
A: 2.15 µM

Q: What about the TGI (PC-3) of the same molecule?
A: 8.31 µM

Q: And the CC50 (PC-3; [1])?
A: > 100 µM

Q: And the inhibition of growth at 10 µM (KM12)?
A: 86.4%

Q: What about the inhibition of growth at 10 µM (NCI-H322M) of the same molecule?
A: 64.6%

Q: What about the GI50 (DU-145) of the same molecule?
A: 3.9 µM

Q: And the TGI (DU-145)?
A: > 100 µM

Q: What about the CC50 (DU-145; [1]) of the same molecule?
A: > 100 µM

Q: And the inhibition of growth at 10 µM (SK-MEL-5)?
A: 92.6%

Q: What about the inhibition of growth at 10 µM (SK-MEL-28) of the same molecule?
A: 51.8%

Q: What about the GI50 (MDA-MB-435) of the same molecule?
A: 2.89 µM

Q: And the TGI (MDA-MB-435)?
A: 12.5 µM

Q: What about the CC50 (MDA-MB-435; [1]) of the same molecule?
A: > 100 µM

Q: And the inhibition of growth at 10 µM (HOP-62)?
A: 75.8%

Q: And the inhibition of growth at 10 µM (SF-268)?
A: 78.7%

Q: And the MIC (Pseudomonas aeruginosa)?
A: 125 µg/mL (≈ 256 µM)
